This is an account of results in US20080227820A1, “CYCLIC PHENYL-SUBSTITUTED INDAZOLS, A PROCESS FOR THEIR PRODUCTION AND THEIR USE AS ANTI-INFLAMMATORY AGENTS” (priority 2006, published 2008).

For orientation: IC50 means the concentration at which inhibition is half-maximal.

Experiment [1] has as its target T1, glucocorticoid receptor (GR) (Homo sapiens, UniProt P04150).
T1 construct: made in house; host or cells: Sf9 cells infected with recombinant baculovirus (cytosol preparation)
T1 sequence (P04150 1-777): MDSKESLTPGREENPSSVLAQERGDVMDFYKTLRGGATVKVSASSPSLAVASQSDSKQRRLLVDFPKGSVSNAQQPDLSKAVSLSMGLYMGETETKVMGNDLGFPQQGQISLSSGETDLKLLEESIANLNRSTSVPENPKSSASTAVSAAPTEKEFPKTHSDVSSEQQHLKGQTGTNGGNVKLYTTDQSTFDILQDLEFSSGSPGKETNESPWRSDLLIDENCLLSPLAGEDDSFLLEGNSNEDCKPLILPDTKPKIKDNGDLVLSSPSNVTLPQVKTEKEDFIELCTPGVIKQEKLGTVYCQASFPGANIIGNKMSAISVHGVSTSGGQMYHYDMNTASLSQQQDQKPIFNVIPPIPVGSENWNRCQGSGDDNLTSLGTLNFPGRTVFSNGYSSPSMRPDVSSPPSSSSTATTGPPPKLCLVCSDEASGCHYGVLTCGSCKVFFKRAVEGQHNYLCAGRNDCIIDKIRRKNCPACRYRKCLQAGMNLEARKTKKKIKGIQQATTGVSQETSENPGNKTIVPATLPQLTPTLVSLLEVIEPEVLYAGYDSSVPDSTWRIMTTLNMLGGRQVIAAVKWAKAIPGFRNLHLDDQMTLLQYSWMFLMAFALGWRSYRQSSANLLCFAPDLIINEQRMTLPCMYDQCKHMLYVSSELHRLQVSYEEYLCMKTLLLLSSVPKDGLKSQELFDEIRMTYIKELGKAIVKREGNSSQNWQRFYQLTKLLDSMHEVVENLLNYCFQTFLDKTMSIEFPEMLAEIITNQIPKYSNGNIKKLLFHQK
As to the kind of experiment: Binding to recombinant glucocorticoid receptor, Sf9 cytosol, vs [3H]-dexamethasone. Conditions: [3H]-dexamethasone reference. The source says:
(§1) The binding of the substances to the glucocorticoid receptor (GR) and other steroid hormone receptors (mineral corticoid receptor (MR), progesterone receptor (PR) and androgen receptor (AR)) is examined with the aid of recombinantly produced receptors. Cytosol preparations of Sf9 cells, which had been infected with recombinant baculoviruses, which code for the GR, are used for the binding studies. In comparison to reference substance [^3H]-dexamethasone, the substances show a high to very high affinity to GR.

Experiment [2] addresses T2, mineral corticoid receptor (MR) (Homo sapiens, UniProt P08235).
T2 sequence (P08235 1-984): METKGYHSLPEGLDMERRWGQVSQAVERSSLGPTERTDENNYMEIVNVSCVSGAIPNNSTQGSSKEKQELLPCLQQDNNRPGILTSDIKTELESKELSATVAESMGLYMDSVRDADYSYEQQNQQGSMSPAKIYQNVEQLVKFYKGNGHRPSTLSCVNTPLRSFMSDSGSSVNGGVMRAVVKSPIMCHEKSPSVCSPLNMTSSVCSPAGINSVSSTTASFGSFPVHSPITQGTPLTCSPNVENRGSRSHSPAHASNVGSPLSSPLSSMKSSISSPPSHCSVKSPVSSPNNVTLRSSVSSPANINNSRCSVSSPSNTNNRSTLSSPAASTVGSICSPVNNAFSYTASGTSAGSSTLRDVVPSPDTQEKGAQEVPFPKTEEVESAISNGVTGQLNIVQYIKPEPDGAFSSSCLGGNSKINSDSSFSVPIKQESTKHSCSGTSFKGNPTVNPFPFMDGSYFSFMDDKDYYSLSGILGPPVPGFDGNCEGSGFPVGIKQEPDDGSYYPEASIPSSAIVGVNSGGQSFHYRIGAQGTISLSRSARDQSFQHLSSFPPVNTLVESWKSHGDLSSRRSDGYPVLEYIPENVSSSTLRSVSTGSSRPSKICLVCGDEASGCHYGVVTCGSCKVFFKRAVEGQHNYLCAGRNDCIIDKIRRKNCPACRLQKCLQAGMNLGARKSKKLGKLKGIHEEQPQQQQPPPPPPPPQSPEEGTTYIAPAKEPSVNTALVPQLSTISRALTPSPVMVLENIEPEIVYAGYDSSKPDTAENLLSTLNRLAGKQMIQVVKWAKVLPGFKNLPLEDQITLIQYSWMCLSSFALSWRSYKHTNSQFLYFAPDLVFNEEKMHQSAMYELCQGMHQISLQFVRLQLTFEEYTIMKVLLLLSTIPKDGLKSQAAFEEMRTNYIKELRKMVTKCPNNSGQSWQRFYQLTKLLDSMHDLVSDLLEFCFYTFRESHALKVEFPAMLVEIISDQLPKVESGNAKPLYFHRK
Briefly: Binding to recombinant mineral corticoid receptor. The following applies: recombinantly produced receptor.
Source text: as §1

Experiment [3] concerns the target T3, progesterone receptor (PR) (Homo sapiens, UniProt P06401).
T3 sequence (P06401 1-933): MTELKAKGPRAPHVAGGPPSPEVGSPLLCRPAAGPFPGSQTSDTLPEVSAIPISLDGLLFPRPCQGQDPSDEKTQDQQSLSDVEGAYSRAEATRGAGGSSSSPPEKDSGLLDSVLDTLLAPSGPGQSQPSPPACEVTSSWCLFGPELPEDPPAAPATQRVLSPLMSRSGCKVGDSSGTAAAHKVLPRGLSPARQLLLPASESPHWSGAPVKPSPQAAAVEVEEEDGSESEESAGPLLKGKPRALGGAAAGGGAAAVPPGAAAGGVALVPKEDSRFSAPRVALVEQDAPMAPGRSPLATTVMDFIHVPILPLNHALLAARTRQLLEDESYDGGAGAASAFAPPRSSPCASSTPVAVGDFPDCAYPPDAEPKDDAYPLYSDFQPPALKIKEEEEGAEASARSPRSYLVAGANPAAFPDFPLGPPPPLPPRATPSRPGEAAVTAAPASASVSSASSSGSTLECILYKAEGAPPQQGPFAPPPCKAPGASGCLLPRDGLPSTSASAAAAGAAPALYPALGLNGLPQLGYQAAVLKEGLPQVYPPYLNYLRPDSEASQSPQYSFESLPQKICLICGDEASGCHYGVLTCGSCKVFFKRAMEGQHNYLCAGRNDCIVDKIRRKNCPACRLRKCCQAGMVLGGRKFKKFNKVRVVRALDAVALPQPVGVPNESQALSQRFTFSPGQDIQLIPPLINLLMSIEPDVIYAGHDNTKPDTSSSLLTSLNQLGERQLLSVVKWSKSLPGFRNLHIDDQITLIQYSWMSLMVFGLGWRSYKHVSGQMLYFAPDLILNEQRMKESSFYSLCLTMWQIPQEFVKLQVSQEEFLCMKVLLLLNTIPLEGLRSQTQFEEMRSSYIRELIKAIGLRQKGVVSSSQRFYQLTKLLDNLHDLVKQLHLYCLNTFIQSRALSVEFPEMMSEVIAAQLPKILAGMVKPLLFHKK
As to the kind of experiment: Binding to recombinant progesterone receptor. The following applies: recombinantly produced receptor.
Source text: as §1

A further experiment has as its target T4, androgen receptor (AR) (Homo sapiens, UniProt P10275).
T4 sequence (P10275 1-920): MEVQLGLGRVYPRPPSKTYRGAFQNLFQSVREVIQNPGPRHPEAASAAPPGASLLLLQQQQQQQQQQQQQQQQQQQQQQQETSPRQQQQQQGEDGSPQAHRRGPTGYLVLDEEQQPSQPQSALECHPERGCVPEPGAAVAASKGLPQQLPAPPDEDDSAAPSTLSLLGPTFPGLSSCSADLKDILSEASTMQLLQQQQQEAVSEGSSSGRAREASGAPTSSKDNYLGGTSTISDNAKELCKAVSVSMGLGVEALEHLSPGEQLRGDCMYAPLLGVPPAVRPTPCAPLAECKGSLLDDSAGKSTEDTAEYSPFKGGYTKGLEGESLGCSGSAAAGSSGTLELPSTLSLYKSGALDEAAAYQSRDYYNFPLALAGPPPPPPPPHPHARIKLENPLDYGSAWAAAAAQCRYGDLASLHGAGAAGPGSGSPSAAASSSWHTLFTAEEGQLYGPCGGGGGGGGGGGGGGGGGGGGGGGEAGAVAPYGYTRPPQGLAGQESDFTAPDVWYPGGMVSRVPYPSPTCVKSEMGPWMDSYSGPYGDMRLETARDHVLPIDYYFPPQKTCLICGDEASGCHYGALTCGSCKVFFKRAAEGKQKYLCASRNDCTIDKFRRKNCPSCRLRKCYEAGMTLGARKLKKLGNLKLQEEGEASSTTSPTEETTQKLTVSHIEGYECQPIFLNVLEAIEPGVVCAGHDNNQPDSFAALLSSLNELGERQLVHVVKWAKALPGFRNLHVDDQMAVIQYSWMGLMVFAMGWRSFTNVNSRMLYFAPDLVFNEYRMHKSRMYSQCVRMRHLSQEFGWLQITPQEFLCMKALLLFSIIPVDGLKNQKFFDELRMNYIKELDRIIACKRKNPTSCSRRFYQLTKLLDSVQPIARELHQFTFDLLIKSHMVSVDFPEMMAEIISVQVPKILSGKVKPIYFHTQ
As to the kind of experiment: Binding to recombinant androgen receptor. The following applies: recombinantly produced receptor.
Source text: as §1

A further experiment concerns the target ER. As to the kind of experiment: Steroid receptor binding, ER.
Experiment [4] has as its system human monocyte cell line THP-1. As to the kind of experiment: Inhibition of LPS-triggered IL-8 secretion in THP-1 cells (ELISA). The experiment is classed as cell-based. On the procedure:
The concentration of the cytokines was determined in the supernatant by means of commercially available ELISA kits.
On the technique in general: ELISA stands for enzyme-linked immunosorbent assay.

As for `CC[C@@H]1C[C@](O)(C(F)(F)F)[C@@H](Nc2cccc3c2cnn3-c2ccc(F)cc2)c2ccc(F)c(O)c21` [Example 4], the IC50 in experiment [1] is 0.0165 µM; in experiment [2], greater than 1 µM; in experiment [3], greater than 1 µM; on androgen receptor (AR), greater than 1 µM; at ER, greater than 1 µM; in experiment [4] (Homo sapiens, THP-1, supernatant ELISA, read-out: IC50(IL8)), 0.0024 µM. Further, the “eff. relative to dexamethasone (IL-8 inhibition)” value in experiment [4] (THP-1, relative to dexamethasone) is listed as 91%.
